Source: ChEMBL document CHEMBL5154747, “Discovery of new carbonic anhydrase IX inhibitors as anticancer agents by toning the hydrophobic and hydrophilic rims of the active site to encounter the dual-tail approach” (Eur J Med Chem, 2022)

Tested on: T47D
Test: Anticancer activity against human T47D cells assessed as cell growth inhibition at 10 uM incubated for 48 hrs by SRB assay relative to control
Format: functional
Details: read-out: GI

Compound | inhibition of growth at 10 µM [%]
NS(=O)(=O)c1ccc(Nc2nc(N/N=C/c3ccc(F)cc3)nc(Nc3ccccc3)n2)cc1 | 79

Tested on: U-251
Test: Anticancer activity against human U-251 cells assessed as cell growth inhibition at 10 uM incubated for 48 hrs by SRB assay relative to control
Format: functional
Details: read-out: GI

Compound | inhibition of growth at 10 µM [%]
NS(=O)(=O)c1ccc(Nc2nc(N/N=C/c3ccc(F)cc3)nc(Nc3ccccc3)n2)cc1 | 88

Tested on: SK-MEL-28
Test: Anticancer activity against human SK-MEL-28 cells assessed as cell growth inhibition at 10 uM incubated for 48 hrs by SRB assay relative to control
Format: functional
Details: read-out: GI

Compound | inhibition of growth at 10 µM [%]
NS(=O)(=O)c1ccc(Nc2nc(N/N=C/c3ccc(F)cc3)nc(Nc3ccccc3)n2)cc1 | 36

Tested on: RPMI-8226
Test: Anticancer activity against human RPMI-8226 cells assessed as cell growth inhibition at 10 uM incubated for 48 hrs by SRB assay relative to control
Format: functional
Details: read-out: GI

Compound | inhibition of growth at 10 µM [%]
NS(=O)(=O)c1ccc(Nc2nc(N/N=C/c3ccc(F)cc3)nc(Nc3ccccc3)n2)cc1 | 49

Tested on: SK-OV-3
Test: Anticancer activity against human SK-OV-3 cells assessed as cell growth inhibition at 10 uM incubated for 48 hrs by SRB assay relative to control
Format: functional
Details: read-out: GI

Compound | inhibition of growth at 10 µM [%]
NS(=O)(=O)c1ccc(Nc2nc(N/N=C/c3ccc(F)cc3)nc(Nc3ccccc3)n2)cc1 | 28

Tested on: CAKI-1
Test: Anticancer activity against human CAKI-1 cells assessed as cell growth inhibition at 10 uM incubated for 48 hrs by SRB assay relative to control
Format: functional
Details: read-out: GI

Compound | inhibition of growth at 10 µM [%]
NS(=O)(=O)c1ccc(Nc2nc(N/N=C/c3ccc(F)cc3)nc(Nc3ccccc3)n2)cc1 | 43

Tested on: NCI-H522
Test: Anticancer activity against human NCI-H522 cells assessed as cell growth inhibition at 10 uM incubated for 48 hrs by SRB assay relative to control
Format: functional
Details: read-out: GI

Compound | inhibition of growth at 10 µM [%]
NS(=O)(=O)c1ccc(Nc2nc(N/N=C/c3ccc(F)cc3)nc(Nc3ccccc3)n2)cc1 | 84

Tested on: SK-MEL-5
Test: Anticancer activity against human SK-MEL-5 cells assessed as cell growth inhibition at 10 uM incubated for 48 hrs by SRB assay relative to control
Format: functional
Details: read-out: GI

Compound | inhibition of growth at 10 µM [%]
NS(=O)(=O)c1ccc(Nc2nc(N/N=C/c3ccc(F)cc3)nc(Nc3ccccc3)n2)cc1 | 61

Tested on: HL-60(TB)
Test: Anticancer activity against human HL-60(TB) cells assessed as cell growth inhibition at 10 uM incubated for 48 hrs by SRB assay relative to control
Format: functional
Details: read-out: GI

Compound | inhibition of growth at 10 µM [%]
NS(=O)(=O)c1ccc(Nc2nc(N/N=C/c3ccc(F)cc3)nc(Nc3ccccc3)n2)cc1 | 39

Tested on: K562
Test: Anticancer activity against human K562 cells assessed as cell growth inhibition at 10 uM incubated for 48 hrs by SRB assay relative to control
Format: functional
Details: read-out: GI

Compound | inhibition of growth at 10 µM [%]
NS(=O)(=O)c1ccc(Nc2nc(N/N=C/c3ccc(F)cc3)nc(Nc3ccccc3)n2)cc1 | 45

Tested on: OVCAR-3
Test: Anticancer activity against human OVCAR-3 cells assessed as cell growth inhibition at 10 uM incubated for 48 hrs by SRB assay relative to control
Format: functional
Details: read-out: GI

Compound | inhibition of growth at 10 µM [%]
NS(=O)(=O)c1ccc(Nc2nc(N/N=C/c3ccc(F)cc3)nc(Nc3ccccc3)n2)cc1 | 69

Tested on: HT-29
Test: Anticancer activity against human HT-29 cells assessed as cell growth inhibition at 10 uM incubated for 48 hrs by SRB assay relative to control
Format: functional
Details: read-out: GI

Compound | inhibition of growth at 10 µM [%]
NS(=O)(=O)c1ccc(Nc2nc(N/N=C/c3ccc(F)cc3)nc(Nc3ccccc3)n2)cc1 | 95

Tested on: EKVX
Test: Anticancer activity against human EKVX cells assessed as cell growth inhibition at 10 uM incubated for 48 hrs by SRB assay relative to control
Format: functional
Details: read-out: GI

Compound | inhibition of growth at 10 µM [%]
NS(=O)(=O)c1ccc(Nc2nc(N/N=C/c3ccc(F)cc3)nc(Nc3ccccc3)n2)cc1 | 37

Tested on: ACHN
Test: Anticancer activity against human ACHN cells assessed as cell growth inhibition at 10 uM incubated for 48 hrs by SRB assay relative to control
Format: functional
Details: read-out: GI

Compound | inhibition of growth at 10 µM [%]
NS(=O)(=O)c1ccc(Nc2nc(N/N=C/c3ccc(F)cc3)nc(Nc3ccccc3)n2)cc1 | 19

Tested on: SNB-19
Test: Anticancer activity against human SNB-19 cells assessed as cell growth inhibition at 10 uM incubated for 48 hrs by SRB assay relative to control
Format: functional
Details: read-out: GI

Compound | inhibition of growth at 10 µM [%]
NS(=O)(=O)c1ccc(Nc2nc(N/N=C/c3ccc(F)cc3)nc(Nc3ccccc3)n2)cc1 | 30

Tested on: Hs-578T
Test: Anticancer activity against human Hs-578T cells assessed as cell growth inhibition at 10 uM incubated for 48 hrs by SRB assay relative to control
Format: functional
Details: read-out: GI

Compound | inhibition of growth at 10 µM [%]
NS(=O)(=O)c1ccc(Nc2nc(N/N=C/c3ccc(F)cc3)nc(Nc3ccccc3)n2)cc1 | 59

Tested on: IGROV-1
Test: Anticancer activity against human IGROV-1 cells assessed as cell growth inhibition at 10 uM incubated for 48 hrs by SRB assay relative to control
Format: functional
Details: read-out: GI

Compound | inhibition of growth at 10 µM [%]
NS(=O)(=O)c1ccc(Nc2nc(N/N=C/c3ccc(F)cc3)nc(Nc3ccccc3)n2)cc1 | 56

Tested on: SN12C
Test: Anticancer activity against human SN12C cells assessed as cell growth inhibition at 10 uM incubated for 48 hrs by SRB assay relative to control
Format: functional
Details: read-out: GI

Compound | inhibition of growth at 10 µM [%]
NS(=O)(=O)c1ccc(Nc2nc(N/N=C/c3ccc(F)cc3)nc(Nc3ccccc3)n2)cc1 | 49

Tested on: OVCAR-8
Test: Anticancer activity against human OVCAR-8 cells assessed as cell growth inhibition at 10 uM incubated for 48 hrs by SRB assay relative to control
Format: functional
Details: read-out: GI

Compound | inhibition of growth at 10 µM [%]
NS(=O)(=O)c1ccc(Nc2nc(N/N=C/c3ccc(F)cc3)nc(Nc3ccccc3)n2)cc1 | 70

Tested on: LOX IMVI
Test: Anticancer activity against human LOX IMVI cells assessed as cell growth inhibition at 10 uM incubated for 48 hrs by SRB assay relative to control
Format: functional
Details: read-out: GI

Compound | inhibition of growth at 10 µM [%]
NS(=O)(=O)c1ccc(Nc2nc(N/N=C/c3ccc(F)cc3)nc(Nc3ccccc3)n2)cc1 | 39

Tested on: 786-0
Test: Anticancer activity against human 786-0 cells assessed as cell growth inhibition at 10 uM incubated for 48 hrs by SRB assay relative to control
Format: functional
Details: read-out: GI

Compound | inhibition of growth at 10 µM [%]
NS(=O)(=O)c1ccc(Nc2nc(N/N=C/c3ccc(F)cc3)nc(Nc3ccccc3)n2)cc1 | 41

Tested on: UO-31
Test: Anticancer activity against human UO-31 cells assessed as cell growth inhibition at 10 uM incubated for 48 hrs by SRB assay relative to control
Format: functional
Details: read-out: GI

Compound | inhibition of growth at 10 µM [%]
NS(=O)(=O)c1ccc(Nc2nc(N/N=C/c3ccc(F)cc3)nc(Nc3ccccc3)n2)cc1 | 33

Tested on: SNB-75
Test: Anticancer activity against human SNB-75 cells assessed as cell growth inhibition at 10 uM incubated for 48 hrs by SRB assay relative to control
Format: functional
Details: read-out: GI

Compound | inhibition of growth at 10 µM [%]
NS(=O)(=O)c1ccc(Nc2nc(N/N=C/c3ccc(F)cc3)nc(Nc3ccccc3)n2)cc1 | < 10

Tested on: HCC 2998
Test: Anticancer activity against human HCC 2998 cells assessed as cell growth inhibition at 10 uM incubated for 48 hrs by SRB assay relative to control
Format: functional
Details: read-out: GI

Compound | inhibition of growth at 10 µM [%]
NS(=O)(=O)c1ccc(Nc2nc(N/N=C/c3ccc(F)cc3)nc(Nc3ccccc3)n2)cc1 | 44

Tested on: Malme-3M
Test: Anticancer activity against human Malme-3M cells assessed as cell growth inhibition at 10 uM incubated for 48 hrs by SRB assay relative to control
Format: functional
Details: read-out: GI

Compound | inhibition of growth at 10 µM [%]
NS(=O)(=O)c1ccc(Nc2nc(N/N=C/c3ccc(F)cc3)nc(Nc3ccccc3)n2)cc1 | 42

Tested on: UACC-62
Test: Anticancer activity against human UACC-62 cells assessed as cell growth inhibition at 10 uM incubated for 48 hrs by SRB assay relative to control
Format: functional
Details: read-out: GI

Compound | inhibition of growth at 10 µM [%]
NS(=O)(=O)c1ccc(Nc2nc(N/N=C/c3ccc(F)cc3)nc(Nc3ccccc3)n2)cc1 | 39

Tested on: COLO 205
Test: Anticancer activity against human COLO 205 cells assessed as cell growth inhibition at 10 uM incubated for 48 hrs by SRB assay relative to control
Format: functional
Details: read-out: GI

Compound | inhibition of growth at 10 µM [%]
NS(=O)(=O)c1ccc(Nc2nc(N/N=C/c3ccc(F)cc3)nc(Nc3ccccc3)n2)cc1 | 79

Molecular target: Carbonic anhydrase 9 (Homo sapiens, UniProt Q16790)
Test: Inhibition of recombinant human CA 9 preincubated for 15 mins by phenol red dye based stopped flow CO2 hydration assay
Details: not given

Compound | Ki [nM]
NS(=O)(=O)c1ccc(Nc2nc(N/N=C/c3ccc(F)cc3)nc(Nc3ccccc3)n2)cc1 | 61.3

Tested on: CCRF-CEM
Test: Anticancer activity against human CCRF-CEM cells assessed as cell growth inhibition at 10 uM incubated for 48 hrs by SRB assay relative to control
Format: functional
Details: read-out: GI

Compound | inhibition of growth at 10 µM [%]
NS(=O)(=O)c1ccc(Nc2nc(N/N=C/c3ccc(F)cc3)nc(Nc3ccccc3)n2)cc1 | 80

Tested on: OVCAR-5
Test: Anticancer activity against human OVCAR-5 cells assessed as cell growth inhibition at 10 uM incubated for 48 hrs by SRB assay relative to control
Format: functional
Details: read-out: GI

Compound | inhibition of growth at 10 µM [%]
NS(=O)(=O)c1ccc(Nc2nc(N/N=C/c3ccc(F)cc3)nc(Nc3ccccc3)n2)cc1 | 24

Tested on: MDA-MB-468
Test: Anticancer activity against human MDA-MB-468 cells assessed as cell growth inhibition at 10 uM incubated for 48 hrs by SRB assay relative to control
Format: functional
Details: read-out: GI

Compound | inhibition of growth at 10 µM [%]
NS(=O)(=O)c1ccc(Nc2nc(N/N=C/c3ccc(F)cc3)nc(Nc3ccccc3)n2)cc1 | 45

Tested on: HCT-116
Test: Anticancer activity against human HCT-116 cells assessed as cell growth inhibition at 10 uM incubated for 48 hrs by SRB assay relative to control
Format: functional
Details: read-out: GI

Compound | inhibition of growth at 10 µM [%]
NS(=O)(=O)c1ccc(Nc2nc(N/N=C/c3ccc(F)cc3)nc(Nc3ccccc3)n2)cc1 | 55

Tested on: NCI-H460
Test: Anticancer activity against human NCI-H460 cells assessed as cell growth inhibition at 10 uM incubated for 48 hrs by SRB assay relative to control
Format: functional
Details: read-out: GI

Compound | inhibition of growth at 10 µM [%]
NS(=O)(=O)c1ccc(Nc2nc(N/N=C/c3ccc(F)cc3)nc(Nc3ccccc3)n2)cc1 | 34

Tested on: SF-539
Test: Anticancer activity against human SF-539 cells assessed as cell growth inhibition at 10 uM incubated for 48 hrs by SRB assay relative to control
Format: functional
Details: read-out: GI

Compound | inhibition of growth at 10 µM [%]
NS(=O)(=O)c1ccc(Nc2nc(N/N=C/c3ccc(F)cc3)nc(Nc3ccccc3)n2)cc1 | 37

Tested on: HOP-92
Test: Anticancer activity against human HOP-92 cells assessed as cell growth inhibition at 10 uM incubated for 48 hrs by SRB assay relative to control
Format: functional
Details: read-out: GI

Compound | inhibition of growth at 10 µM [%]
NS(=O)(=O)c1ccc(Nc2nc(N/N=C/c3ccc(F)cc3)nc(Nc3ccccc3)n2)cc1 | 36

Tested on: HCT-15
Test: Anticancer activity against human HCT-15 cells assessed as cell growth inhibition at 10 uM incubated for 48 hrs by SRB assay relative to control
Format: functional
Details: read-out: GI

Compound | inhibition of growth at 10 µM [%]
NS(=O)(=O)c1ccc(Nc2nc(N/N=C/c3ccc(F)cc3)nc(Nc3ccccc3)n2)cc1 | 20

Tested on: NCI-H23
Test: Anticancer activity against human NCI-H23 cells assessed as cell growth inhibition at 10 uM incubated for 48 hrs by SRB assay relative to control
Format: functional
Details: read-out: GI

Compound | inhibition of growth at 10 µM [%]
NS(=O)(=O)c1ccc(Nc2nc(N/N=C/c3ccc(F)cc3)nc(Nc3ccccc3)n2)cc1 | 45

Tested on: SR
Test: Anticancer activity against human SR cells assessed as cell growth inhibition at 10 uM incubated for 48 hrs by SRB assay relative to control
Format: functional
Details: read-out: GI

Compound | inhibition of growth at 10 µM [%]
NS(=O)(=O)c1ccc(Nc2nc(N/N=C/c3ccc(F)cc3)nc(Nc3ccccc3)n2)cc1 | 42

Tested on: RXF 393
Test: Anticancer activity against human RXF 393 cells assessed as cell growth inhibition at 10 uM incubated for 48 hrs by SRB assay relative to control
Format: functional
Details: read-out: GI

Compound | inhibition of growth at 10 µM [%]
NS(=O)(=O)c1ccc(Nc2nc(N/N=C/c3ccc(F)cc3)nc(Nc3ccccc3)n2)cc1 | 42

Tested on: SW-620
Test: Anticancer activity against human SW-620 cells assessed as cell growth inhibition at 10 uM incubated for 48 hrs by SRB assay relative to control
Format: functional
Details: read-out: GI

Compound | inhibition of growth at 10 µM [%]
NS(=O)(=O)c1ccc(Nc2nc(N/N=C/c3ccc(F)cc3)nc(Nc3ccccc3)n2)cc1 | 24
